Data published in patent US11063221B2, “Materials for electronic devices” (Merck Patent GmbH, priority 2014, dated 2021).
Converted amounts (≈) assume the structure as drawn.

Assay: Solubility of host materials (Table 4, solution-processed OLEDs)
Format: physicochemical
Conditions: Example V8

Q: For `c1ccc(-c2c3ccccc3c(-c3cccc4c3ccc3cc5ccccc5cc34)c3ccccc23)cc1` [VH-3], which “Solubility / processability from solution (in words)” value is on record?
A: The value was “cannot be processed from solution at all owing to the low solubility”.

Same assay, conditions: host material; solvent not given (emission-layer mixture is dissolved in toluene)

Q: With `Cc1c2ccccc2cc2c1ccc1c(-c3c4ccccc4c(-c4ccccc4)c4ccccc34)cccc12` [H-1] as the molecule, how does the Solubility read?
A: Its Solubility is 40 g/L (≈ 80.9 mM).

Q: With `CC(C)Cc1c2ccccc2cc2c1ccc1c(-c3c4ccccc4c(-c4ccccc4)c4ccccc34)cccc12` [H-2] as the molecule, how does the Solubility read?
A: The Solubility was 45 g/L (≈ 83.8 mM).

Q: With `c1ccc(-c2cc(-c3ccccc3)cc(-c3c4ccccc4c(-c4cccc5c4ccc4cc6ccccc6cc45)c4ccccc34)c2)cc1` [VH-1] as the molecule, how does the Solubility read?
A: The Solubility was 70 g/L (≈ 111 mM).

Q: Which Solubility does the source give for `c1ccc(-c2c3ccccc3c(-c3cccc4c3ccc3cc5ccccc5cc34)c3ccccc23)cc1` [VH-3] here?
A: The Solubility was <1 g/L.

Q: With `c1ccc2cc(-c3c4ccccc4c(-c4cccc5ccccc45)c4ccccc34)ccc2c1` [VH-4] as the molecule, how does the Solubility read?
A: Its Solubility is 44 g/L (≈ 102 mM).
